Assay results: ChEMBL document CHEMBL6121000, “Corosolic acid and its derivatives targeting MCCC1 against insulin resistance and their hypoglycemic effect on type 2 diabetic mice” (Eur J Med Chem, 2025)
Converted amounts (≈) assume the structure as drawn. The source made the active and inactive calls. No cut-off for these calls is given here.

What was measured:
[1] = system: HepG2; assay: Lipid lowering activity in human HepG2 cells assessed as inhibition of FFA-induced triglyceride content at 20 uM preincubated for 1 hr followed by FFA treatment for 24 hrs relative to control; assay type: functional
[2] = system: HepG2; assay: Lipid lowering activity in human HepG2 cells assessed as reduction in FFA-induced triglyceride content at 20 uM preincubated for 1 hr followed by FFA treatment for 24 hrs; assay type: functional, cell-based; conditions: time 25.0 hrs
[3] = system: HepG2; assay: Cytotoxicity against human HepG2 cells assessed as cell survival at 40 uM by MTT assay; assay type: toxicity, cell-based; conditions: hepg2, 40 µM
[4] = system: Mus musculus; assay: Hypoglycemic activity in HFD-fed STZ-induced diabetic C57BL/6J mouse model assessed as improvement in triglyceride level in liver at 20 mg/kg, po administered everyday for 3 weeks; assay type: functional, organism-based
[5] = system: Mus musculus; assay: Hypoglycemic activity in HFD-fed STZ-induced diabetic C57BL/6J mouse model assessed as reversal of diabetes-reduced MCCC1 level in liver at 20 mg/kg, po administered everyday for 3 weeks by Western blot analysis; assay type: functional, organism-based
[6] = Clearance in Sprague-Dawley rat at 20 mg/kg, po measured for 24 hrs by HPLC-ESI-MS analysis; assay type: ADME, organism-based; conditions: in vivo
[7] = Oral bioavailability in Sprague-Dawley rat at 20 mg/kg measured for 24 hrs by HPLC-ESI-MS analysis; assay type: ADME, organism-based; conditions: in vivo
[8] = system: Mus musculus; assay: Hypoglycemic activity in HFD-fed STZ-induced diabetic C57BL/6J mouse model assessed as increase in AKT phosphorylation in liver at 20 mg/kg, po administered everyday for 3 weeks by Western blot analysis; assay type: functional, organism-based
[9] = MRT (0 to t) in Sprague-Dawley rat at 20 mg/kg, po measured for 24 hrs by HPLC-ESI-MS analysis; assay type: ADME, organism-based; conditions: in vivo
[10] = Cytotoxicity against human HepG2 cells assessed as cell survival at 20 uM by MTT assay relative to control; assay type: toxicity, cell-based; conditions: read-out: Survival
[11] = Toxicity in Sprague-Dawley rat assessed as damage in spleen at 20 mg/kg, po for 5 days; assay type: organism-based; conditions: in vivo, 120 h, time 5 day
[12] = Cytotoxicity against human HepG2 cells assessed as cell survival at 10 uM by MTT assay relative to control; assay type: toxicity, cell-based; conditions: read-out: Survival
[13] = Toxicity in Sprague-Dawley rat assessed as damage in colon at 20 mg/kg, po for 5 days; assay type: organism-based; conditions: in vivo, 120 h, time 5 day
[14] = Toxicity in Sprague-Dawley rat assessed as damage in lungs at 20 mg/kg, po for 5 days; assay type: organism-based; conditions: in vivo, 120 h, time 5 day
[15] = system: Mus musculus; assay: Hypoglycemic activity in HFD-fed STZ-induced diabetic C57BL/6J mouse model assessed as decrease in blood glucose level at 20 mg/kg, po administered everyday for 3 weeks; assay type: functional, organism-based
[16] = Volume of distribution in Sprague-Dawley rat at 20 mg/kg, po measured for 24 hrs by HPLC-ESI-MS analysis; assay type: ADME, organism-based; conditions: in vivo
[17] = Toxicity in Sprague-Dawley rat assessed as damage in heart at 20 mg/kg, po for 5 days; assay type: organism-based; conditions: in vivo, 120 h, time 5 day
[18] = Cmax in Sprague-Dawley rat at 20 mg/kg, po measured for 24 hrs by HPLC-ESI-MS analysis; assay type: ADME, organism-based; conditions: in vivo
[19] = Solubility of compound in PBS; assay type: physicochemical
[20] = Toxicity in Sprague-Dawley rat assessed as reduction in number of crypts in colon tissue at 20 mg/kg, po for 5 days; assay type: organism-based; conditions: in vivo, 120 h, time 5 day
[21] = system: HepG2; assay: Inhibition of insulin resistance in human HepG2 cells assessed as decrease in GlcN-induced glucose production at 20 uM preincubated for 1 hr followed by GlcN treatment for 18 hrs and subsequent insulin stimulation for 20 mins; assay type: functional, cell-based; conditions: time 19.33 hrs
[22] = Half life in Sprague-Dawley rat at 20 mg/kg, po measured for 24 hrs by HPLC-ESI-MS analysis; assay type: ADME, organism-based; conditions: in vivo
[23] = AUC (0 to t) in Sprague-Dawley rat at 20 mg/kg, po measured for 24 hrs by HPLC-ESI-MS analysis; assay type: ADME, organism-based; conditions: in vivo
[24] = system: Mus musculus; assay: Inhibition of glucose production in HFD-fed STZ-induced diabetic C57BL/6J mouse model at 20 mg/kg, po administered everyday for 3 weeks; assay type: functional, organism-based
[25] = system: Mus musculus; assay: Hypoglycemic activity in HFD-fed STZ-induced diabetic C57BL/6J mouse model assessed as increase in GLUT4 level in liver at 20 mg/kg, po administered everyday for 3 weeks by Western blot analysis; assay type: functional, organism-based
[26] = Toxicity in Sprague-Dawley rat assessed as damage in liver at 20 mg/kg, po for 5 days; assay type: organism-based; conditions: in vivo, 120 h, time 5 day
[27] = Tmax in Sprague-Dawley rat at 20 mg/kg, po measured for 24 hrs by HPLC-ESI-MS analysis; assay type: ADME, organism-based; conditions: in vivo
[28] = system: Mus musculus; assay: Improvement in hepatic total cholesterol level of HFD-fed STZ-induced diabetic C57BL/6J mouse model at 20 mg/kg, po administered everyday for 3 weeks; assay type: functional, organism-based
[29] = system: Mus musculus; assay: Hypoglycemic activity in HFD-fed STZ-induced diabetic C57BL/6J mouse model assessed as increase in hepatic glycogen synthesis at 20 mg/kg, po administered everyday for 3 weeks; assay type: functional, organism-based
[30] = Cytotoxicity against human HepG2 cells assessed as cell viability at 80 uM incubated for 24 hrs by CCK8 assay relative to control; assay type: toxicity, cell-based; conditions: HepG2 cells, read-out: Activity
[31] = Toxicity in Sprague-Dawley rat assessed as inflammatory cell infiltration in colon tissue at 20 mg/kg, po for 5 days; assay type: organism-based; conditions: in vivo, 120 h, time 5 day

## C[C@H]1[C@H](C)CC[C@]2(C(=O)O)CC[C@]3(C)C(=CC[C@@H]4[C@@]5(C)C[C@@H](O)[C@H](O)C(C)(C)[C@@H]5CC[C@]43C)[C@H]12 [COROSOLIC ACID]
[1]
  inhibition at 20 µM: 61.6%
[2]
  Activity: Active
[3]
  Activity: Toxic
[4]
  Activity: Active
[5]
  Activity: Active
[6]
  CL/F: 23.1 mL/min/kg
[7]
  bioavailability: < 1%
[8]
  Activity: Active
[9]
  MRT last at 24 h: 10.2 h
[10]
  viability at 20 µM: 101%
[11]
  Activity: Non-toxic
[12]
  viability at 10 µM: 96%
[13]
  Activity: Non-toxic
[14]
  Activity: Non-toxic
[15]
  Activity: Active; Slight Decrease Was Observed
[16]
  Vd: 33.04048 L/kg
[17]
  Activity: Non-toxic
[18]
  Cmax: 802 ng/mL
[19]
  solubility: 0.55 µM (≈ 0.26 µg/mL)
[20]
  Activity: Non-toxic
[21]
  inhibition: Active
[22]
  half-life: 16.5 h
[23]
  AUC(0-t) at 24 h: 9200 ng·h/mL
[24]
  inhibition: inactive
[25]
  Activity: Active; Slight Increase Observed
[26]
  Activity: Non-toxic
[27]
  Tmax: 0.5 h
[28]
  Activity: inactive
[29]
  Activity: Active
[30]
  viability at 24 h, 80 µM: 13.5%
[31]
  Activity: Non-toxic
